Assay results from PubChem BioAssay AID1645865 (Buhrlage Lab, Dana-Farber Cancer Institute and Novartis …, 2021).
The source made the active and inactive calls.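 Rule for the calls: active = maximal inhibition of the USP30 enzyme reaching 30% or more across the dose series; inactive = the rest.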

These compounds were tested against Ubiquitin carboxyl-terminal hydrolase 30 (Homo sapiens) (UniProt Q70CQ3) (assay: inhibitors of ubiquitin-specific protease 30 deubiquitylating enzyme, concentration dependence, in vitro biochemical, validation of primary hits (AID 1645865)). Conditions: purified USP30, Ub-rhodamine cleavage, fluorescence, 2 h.
Ubiquitin carboxyl-terminal hydrolase 30 (Homo sapiens), sequence (Q70CQ3 whole entry, looked up): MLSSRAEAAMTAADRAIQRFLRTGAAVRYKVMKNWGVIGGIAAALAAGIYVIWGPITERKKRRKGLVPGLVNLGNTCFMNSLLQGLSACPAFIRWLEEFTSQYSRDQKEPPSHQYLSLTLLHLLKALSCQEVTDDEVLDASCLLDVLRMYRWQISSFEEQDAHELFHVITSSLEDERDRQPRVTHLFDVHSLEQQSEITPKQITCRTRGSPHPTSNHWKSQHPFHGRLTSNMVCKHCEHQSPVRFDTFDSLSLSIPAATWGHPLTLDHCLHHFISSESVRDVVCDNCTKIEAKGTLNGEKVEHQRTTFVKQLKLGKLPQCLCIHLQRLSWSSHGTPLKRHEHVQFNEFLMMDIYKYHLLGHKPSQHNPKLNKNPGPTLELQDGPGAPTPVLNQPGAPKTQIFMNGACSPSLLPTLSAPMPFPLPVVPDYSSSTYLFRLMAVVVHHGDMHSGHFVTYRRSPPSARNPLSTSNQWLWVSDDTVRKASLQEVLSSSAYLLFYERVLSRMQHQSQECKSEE
For COc1ccc(C2/C(=C(\O)c3ccccc3)C(=O)C(=O)N2c2nc3ccc(F)cc3s2)cc1 (stereo not given), the IC50 was 43.1 µM.
In the case of N#Cc1c(-c2cccs2)cc(-c2cccs2)[nH]c1=O, the IC50 is reported as > 50 µM (inactive).
With COc1ccc(N2CCN(Cc3nnnn3Cc3ccc4c(c3)OCO4)CC2)cc1 the IC50 was > 50 µM (inactive).
With Cc1nn(-c2ccccc2)c2c1N=C1C(Cl)=CC(Cl)=CN1C21C(=O)Nc2ccccc21 (stereo not given) the IC50 was > 50 µM (inactive).
For CCC(=O)OCc1cnc(C)c2oc(=O)c(-c3nc(-c4ccccc4)no3)cc12, the IC50 was > 50 µM (inactive).
Compound CCc1ccc2[nH]c3c(c(=O)c2c1)CN(CC(=O)NCc1ccc2c(c1)OCO2)CC3 has an IC50 of 35.5 µM.
With CCn1cnc2ccc(C(=O)NC3CC3)cc2c1=O the IC50 was > 50 µM (inactive).
Work on CCn1cc(-c2nc(-c3ccccc3)no2)c(=O)c2cc(F)ccc21 yielded an IC50 of 2.18 µM.
Cc1cccc(C(=O)N2CCc3cc(-c4nc(NC(=O)CN5CCc6ccccc6C5)sc4C)ccc32)c1 was tested, and the IC50 was > 50 µM (inactive).
For Cc1sc(-c2cccnc2)nc1OC(=O)c1ccc(Cl)c(Cl)c1, the IC50 was > 50 µM (inactive).
In the case of CC1CCCN1C(=O)c1ccn(-c2ccc3ccc(-c4cccnc4)cn23)n1 (stereo not given), the IC50 is reported as > 50 µM (inactive).
In the case of NS(=O)(=O)c1cc(C(=O)OCC(=O)c2ccc3c(c2)OCCO3)ccc1Cl, the IC50 is reported as > 50 µM (inactive).
In the case of CC(C)C1Cc2c(sc3nc(SCC(=O)Nc4cccc5ccccc45)nc(N)c23)CO1 (stereo not given), the IC50 is reported as > 50 µM (inactive).
In the case of COc1cc(NC(=O)COC(=O)Cn2cnc3ccccc32)cc(OC)c1, the IC50 is reported as > 50 µM (inactive).
In the case of COc1cc(-c2cc(C(=O)Nc3cc(C)[nH]n3)c3ccccc3n2)cc(OC)c1OC, the IC50 is reported as 32.7 µM.
In the case of O=C(CSc1ncnc2c1oc1ccccc12)NC1CCCC1, the IC50 is reported as 20.7 µM.
O=C(NCCc1ccccc1)c1nnn(Cc2cccc(Cl)c2)c1-n1cccc1 was tested, and the IC50 was > 50 µM (inactive).
With CC(C)CC1NC(=O)C2CCCN2C1=O (stereo not given) the IC50 was > 50 µM (inactive).
For Cc1ccc(N=Cc2sc(O)c3ccccc23)c(C)c1, the IC50 was > 50 µM (inactive).
For CC(C)(C)c1ccc(C(=O)Nc2ccc(Cn3cncn3)cc2)cc1, the IC50 was > 50 µM (inactive).
Cc1ccccc1NC(=O)C(C)n1c(=O)cc(-c2ccccc2)c2c(C)nn(C)c21 (stereo not given) gave an IC50 of 2.45 µM.
Compound COc1ccccc1NC(=O)c1cc2c(C)nn(Cc3ccccc3)c2s1 has an IC50 of 28.9 µM.
For CCOC(=O)c1cnn(-c2ccc(C(=O)Nc3ccc(C)c(Cl)c3)cc2)c1N, the IC50 was 2.17 µM.
In the case of COc1ccc(CNC(=O)CCc2nc3sc4c(c3c(=O)[nH]2)CCCCC4)cc1, the IC50 is reported as > 50 µM (inactive).
With CCOc1ccccc1C(=O)NCC(=O)OC(C(=O)c1c[nH]c2ccccc12)c1ccccc1 (stereo not given) the IC50 was > 50 µM (inactive).
For O=[N+]([O-])c1ccc(N2CCN(c3ncnc4c3[nH]c3ccc(F)cc34)CC2)cc1, the IC50 was 0.156 µM.
Cc1ccc(NC(=O)Cc2nnc3cc(-c4nc(C)no4)ccn23)cc1 gave an IC50 of 4.06 µM.
COc1cccc(C(=O)Oc2ccc3c(=O)c(-c4ccc(OC)c(OC)c4)coc3c2)c1 gave an IC50 of 0.152 µM.
Work on O=C1CC(C(=O)Nc2ccc(F)cc2)n2nc(SCc3ccccc3)nc2N1 (stereo not given) yielded an IC50 of 26.8 µM.
For Cc1nc(-c2cccc(NC(=O)c3ccccc3Cl)c2)no1, the IC50 was > 50 µM (inactive).
In the case of CNC(=O)C1CN(C(=O)c2ccc(OC)cc2)CC12CCCC2 (stereo not given), the IC50 is reported as > 50 µM (inactive).
COCC(=O)Nc1cc(F)c2nc(N3CCOCC3)ccc2c1 was tested, and the IC50 was > 50 µM (inactive).
With O=C(NCc1ccc(CN2CCCC2)cc1)c1cc2ccccc2[nH]c1=O the IC50 was > 50 µM (inactive).
With COc1ccc(-c2cc3nc([C@H](C)NC(=O)Cc4ccccc4C)nn3cn2)cc1 the IC50 was 1.9 µM.
Cc1ncc(CO)c2c1Oc1nc(-c3cccc(Cl)c3)nc(SCC(=O)N3CCCCC3)c1C2 was tested, and the IC50 was > 50 µM (inactive).
With O=C(Cn1c(CSc2ccccc2)nc2ccccc21)Nc1ccccc1F the IC50 was > 50 µM (inactive).
With CCC(C)(C)C1CCC2(CC1)N=C(N)Nc1nc3ccccc3n12 (stereo not given) the IC50 was 28.6 µM.
With CCn1cnc2c1c(=O)n(CC(=O)NCc1ccccc1Cl)c(=O)n2Cc1ccccc1 the IC50 was > 50 µM (inactive).
For CC1CCc2c(sc3ncnc(NC4CCN(CC(N)=O)CC4)c23)C1 (stereo not given), the IC50 was > 50 µM (inactive).
In the case of O=[N+]([O-])c1ccc(NCC2COc3ccccc3O2)c(Cl)c1 (stereo not given), the IC50 is reported as > 50 µM (inactive).
Work on COc1ccc(CCNC(=O)c2cn(-c3ccc(F)cc3)nn2)cc1OC yielded an IC50 of 6.79 µM.
For Cn1c(-c2nnc(SCC(=O)NCCc3ccccc3)o2)cc2ccccc21, the IC50 was 7 µM.
For O=C(Nc1ccc(-c2cn3ccccc3n2)cc1)C1C=C2C=C(Br)C=CC2OC1=O (stereo not given), the IC50 was 0.337 µM.
For Cc1sc(NC(=O)CNc2ccccc2)nc1-c1ccc2c(c1)CCN2C(=O)C(C)C, the IC50 was > 50 µM (inactive).
Cc1ccn(-c2ccc(NC(=O)C3CCCCC3)cc2)n1 gave an IC50 of 17.2 µM.
With CNS(=O)(=O)c1ccc(CNC(=O)c2cc(-c3ccc(C)cc3)no2)cc1 the IC50 was 18 µM.
Cc1nc2sc(C(=O)Nc3ccccc3Br)c(N)c2c(C)c1C gave an IC50 of 1.2 µM.
Cc1ccccc1N1C(=O)/C(=C\c2cccn2C)c2ccccc2C1=O was tested, and the IC50 was > 50 µM (inactive).
With COc1ncccc1CN1CCn2c(Cn3cncn3)cnc2C1C (stereo not given) the IC50 was > 50 µM (inactive).
For Cn1c2ccccc2c(=O)c2c(=O)n(Cc3ccccc3)c(-c3ccco3)nc21, the IC50 was 1.56 µM.
In the case of COc1ccc(C(C(=O)NC2CCCCC2)N(C(=O)CCCC(=O)Nc2ccccn2)c2ccccc2C)cc1 (stereo not given), the IC50 is reported as 19.3 µM.
In the case of C=C1CCC2[C@](C)(CCC[C@]2(C)C(=O)OC)[C@H]1CCc1ccoc1/C=C/C(=O)O (stereo not given in full), the IC50 is reported as > 50 µM (inactive).
For COc1ccc(C(=O)NCc2csc3ccccc23)cc1, the IC50 was 45.2 µM.
For Cc1cccc(NC(=O)CSc2ncnc3c2sc2nc(CC(C)C)c4c(c23)CCC4)c1, the IC50 was 19.6 µM.
COc1ccc(C)cc1NC(=O)CSc1nc(C)nc2c1oc1ccccc12 showed an IC50 of 17.9 µM.
In the case of N#Cc1cccnc1N1CCN(C(=O)Nc2cccc3ccccc23)CC1, the IC50 is reported as > 50 µM (inactive).
For O=C(NCC1CC1)C1CCCN(c2ccc(-c3ccccc3)nn2)C1 (stereo not given), the IC50 was > 50 µM (inactive).
Cc1ccc(Cn2cc(-c3noc(-c4ccncc4)n3)nn2)cc1 showed an IC50 of 27.6 µM.
In the case of Cn1c(=O)sc2cc(NC(=O)c3ccc(Br)cc3)ccc21, the IC50 is reported as 2.21 µM.
O=C(COc1ccc(Cl)cc1)Nc1noc(-c2ccccc2)n1 showed an IC50 of 25.8 µM.
For CC(=O)c1ccc(NC(=O)/C(=C/c2ccco2)n2nnnc2-c2ccccc2)cc1, the IC50 was > 50 µM (inactive).
In the case of C=Cc1ccc(Cn2cc(S(=O)(=O)N3CCOCC3)ccc2=O)cc1, the IC50 is reported as 28.1 µM.
For CCN(CC)c1nc(F)c2c(c1F)S(=O)(=O)CCN2Cc1ccccc1, the IC50 was > 50 µM (inactive).
In the case of CCCc1c(C(=O)O)c(O[C@H]2O[C@H](C)[C@@H](OC)[C@H](OC)[C@@H]2OC)cc2cc3c(c(O)c12)C(=O)c1c(O)cc(O[C@@H]2O[C@@H](C)[C@H](O[C@H]4O[C@H](C)[C@@H](OC)[C@H](OC)[C@@H]4O)[C@@H](OC)[C@H]2O)cc1C3=O, the IC50 is reported as > 50 µM (inactive).
CSc1cccc(C(=O)Nc2ccc(-c3nc4ccccc4[nH]3)cc2)c1 was tested, and the IC50 was 2.89 µM.
Work on O=C(Nc1ccc(F)cc1F)c1csc(-c2ccccc2)n1 yielded an IC50 of 22.6 µM.
O=C1N(Cc2ccc(F)cc2)CCN1c1ccc2c(c1)CCC2 was tested, and the IC50 was > 50 µM (inactive).
COc1ccc(-c2nc(C)c(C(=O)NCc3ccc(S(N)(=O)=O)cc3)s2)cc1 was tested, and the IC50 was > 50 µM (inactive).
For O=C(Nc1ccc2c(c1)OCCO2)C1CCN(C(=O)c2ccccc2)CC1, the IC50 was > 50 µM (inactive).
CC(c1ccccc1)c1nc(-c2ccc(=O)[nH]c2)no1 (stereo not given) was tested, and the IC50 was > 50 µM (inactive).
Compound COc1ccc(Cn2cnc3c([nH]c4ccc(Br)cc43)c2=O)cc1 has an IC50 of 0.833 µM.
CN=C(N)NCCC/C=C/CCCC(C)CC(C)C1OC(=O)/C=C/C(C)C(O)CC(O)C(C)C(O)CCC(C)C(O)CC2(O)OC(CC(OC(=O)CC(=O)O)CC(O)CC(O)C(C)C(O)/C=C/C1C)CC(O)C2O (stereo not given) showed an IC50 of 27.5 µM.
COc1ccc(OC)c(-c2cn3ccn(-c4ccc5c(c4)CCC5)c(=O)c3n2)c1 was tested, and the IC50 was > 50 µM (inactive).
Work on COC(=O)c1ccc(NC(=O)CSc2nnc(-c3ccc(O)cc3)n2Cc2ccco2)cc1 yielded an IC50 of 4.38 µM.
Work on Cc1c(-c2ccc(C#N)cc2)oc2ccc(Br)cc2c1=O yielded an IC50 of 2.57 µM.
In the case of Cc1cc(=O)n(C)c2c(O)c3c(cc12)c(C)cc(=O)n3C, the IC50 is reported as > 50 µM (inactive).
Compound Cc1ccc(-n2cc3c(N4CCCC(C(=O)NCC5CCCCC5)C4)ncnc3n2)cc1 (stereo not given) has an IC50 of 40.7 µM.
CC(C(=O)NCc1ccc(F)cc1)n1cccc1C(=O)c1ccccc1 (stereo not given) was tested, and the IC50 was > 50 µM (inactive).
CCN1C(=O)COc2ccc(NC(=O)c3ccc(OCc4nonc4C)cc3)cc21 showed an IC50 of 29.6 µM.
In the case of Cc1cc(NC(=O)c2cc(-c3cccnc3)n[nH]2)ccc1Br, the IC50 is reported as 1.26 µM.
Compound Cc1cc(-c2nnc(SCC(=O)Nc3ccc(Br)c(C)c3)n2N)n[nH]1 has an IC50 of 16.1 µM.
COc1cccc(-c2cc(C(=O)N3CCN(c4ccc(N5CCOCC5)nn4)CC3)[nH]n2)c1 gave an IC50 of 38.5 µM.
With Cc1ccc(Nc2nc(Nc3cccc(F)c3)nc3nccnc23)c(C)c1 the IC50 was > 50 µM (inactive).
In the case of COc1ccc(-c2cc3c(=O)n(CC(=O)Nc4ccccc4F)ccn3n2)cc1OC, the IC50 is reported as 11.8 µM.
With O=c1[nH]c(-c2ccccn2)nc2c1CCN(Cc1cnn(-c3ccccc3)c1)C2 the IC50 was > 50 µM (inactive).
Cc1ccc(C(=O)N2CCCC3(C2)Nc2cccnc2NC3=NC2CCCC2)s1 (stereo not given) was tested, and the IC50 was > 50 µM (inactive).
For COc1cc2c(cc1OC)C(COc1ccccc1OC)N(C(=O)c1ccc3ccccc3c1)CC2 (stereo not given), the IC50 was > 50 µM (inactive).
Compound CN1C(=O)COc2cc(-c3noc(C(=O)NC4CCCCCC4)n3)ccc21 has an IC50 of 24.7 µM.
COC(=O)c1ccc2c(=O)n(CCCCCC(=O)NCc3cccc(Cl)c3)c(=O)[nH]c2c1 gave an IC50 of 1.69 µM.
With CCCCNC(=O)C1Sc2nnc(-c3ccccc3)n2NC1c1ccccc1 (stereo not given) the IC50 was 21.8 µM.
CCOc1ccc(NC(=O)Cn2c(=O)n(CCCCCC(=O)NCc3ccc(F)cc3)c(=O)c3sccc32)cc1 showed an IC50 of 1.44 µM.
Cc1ccccc1NC(=O)Cn1cc(-c2nc(C3CC3)no2)ccc1=O was tested, and the IC50 was > 50 µM (inactive).
COc1ccc(NC(=O)c2[nH]nc3c2COc2ccccc2-3)c(OC)c1 showed an IC50 of 3.47 µM.
CC1CC[C@]2(NC1)O[C@H]1C[C@H]3[C@@H]4CC[C@H]5C[C@@H](O[C@@H]6O[C@H](CO)[C@H](O[C@@H]7O[C@H](CO)[C@@H](O)[C@H](O[C@@H]8OC[C@@H](O)[C@H](O)[C@H]8O)[C@H]7O[C@@H]7O[C@H](CO)[C@@H](O)[C@H](O)[C@H]7O)[C@H](O)[C@H]6O)CC[C@]5(C)[C@H]4CC[C@]3(C)[C@H]1[C@@H]2C (stereo not given in full) showed an IC50 of 39.5 µM.
O=c1c2c(ccn1Cc1cc(F)ccc1F)ccn2Cc1cccnc1 was tested, and the IC50 was > 50 µM (inactive).
